Broadly, the Ki is the dissociation constant of the complex between target and ligand, obtained from inhibition or displacement.

Where “and” joins values, the source holds several entries; their conditions need not be identical. Equal entries are not always repeated. Where two headings read alike, the source gives them in different places.

From paper PMC10468942, “A Fluorescent Probe as a Lead Compound for a Selective α-Synuclein PET Tracer: Development of a Library of 2-Styrylbenzothiazoles and Biological Evaluation of [^18F]PFSB and [^18F]MFSB” (ACS Omega, 2023) come the findings set out here.

One assay has as its target T1, αSYN fibrils (Homo sapiens, UniProt P37840).
T1 construct: cloning of the DNA construct encoding full-length αSYN into the pET-22b vector; made in house; host or cells: Escherichia coli BL21
The assay can be described thus: [^3H]PiB competition binding assay on αSYN fibrils. On the procedure:
Following the cloning of the DNA construct encoding full-length αSYN into the pET-22b vector and its transformation into BL21 cells, the expression of human αSYN from a prokaryotic host was induced overnight in Escherichia coli at 20 °C with 0.5 mM IPTG. The cells were harvested by centrifugation, resuspended in 20 mM Tris-HCl pH 7.6, 25 mM NaCl and 1× complete protease inhibitor (Roche, Basel, Switzerland), and lysed by sonication. […] Anion exchange chromatography (HiTrap Q, GE Healthcare, Chicago, Illinois) was used to trap the produced αSYN, which was eluted with NaCl 0.1 M over 20 column volumes. Fractions containing αSYN were concentrated and further purified through a Superdex 75 SEC column equilibrated with PBS. […] A 4 mg/mL solution of αSYN in 20 mM K3PO4 pH 9.1 was placed in an orbital shaker at 37 °C, 1000 rpm for 5 days to prepare P91s. The assemblies were either sonicated with cycles of 20 s on and 10 s off at 50% amplitude (Q800R3, Qsonica) for a total of 10 min or directly aliquoted in volumes of 10 μL each stored at −80 °C until use. […] The final products were aliquoted, frozen on dry ice, and stored at −80 °C until use.
(§1) Concentrations of αSYN and Aβ1-42 fibrils were as described above.
(§2) Plates were incubated on a shaker (MaxQ 6000, Thermo Fisher Scientific, Inc., Marietta, OH) at 50 rpm for 2 h at 37 °C, covered by removable sealing tapes (PerkinElmer, Waltham, MA). Vacuum filtration and read-out were performed as previously reported.[17] […] Data points were fitted using nonlinear regression analysis in GraphPad Prism (GraphPad Software, Inc., Version 8.4.0, La Jolla).

The target in a further assay is T2, Aβ1-42 fibrils (Homo sapiens, UniProt P05067).
T2 construct: Synthetic lyophilized human Aβ1-42 peptide; purchased EMC Microcollections, Tuebingen, Germany; host or cells: synthetic peptide
T2 sequence (P05067 672-713 limits assumed): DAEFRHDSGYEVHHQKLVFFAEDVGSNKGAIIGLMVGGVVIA
The assay can be described thus: [^3H]PiB competition binding assay on Aβ fibrils. As to conditions: Aβ1–42 fibrils. The procedure:
Following the cloning of the DNA construct encoding full-length αSYN into the pET-22b vector and its transformation into BL21 cells, the expression of human αSYN from a prokaryotic host was induced overnight in Escherichia coli at 20 °C with 0.5 mM IPTG. The cells were harvested by centrifugation, resuspended in 20 mM Tris-HCl pH 7.6, 25 mM NaCl and 1× complete protease inhibitor (Roche, Basel, Switzerland), and lysed by sonication. […] Anion exchange chromatography (HiTrap Q, GE Healthcare, Chicago, Illinois) was used to trap the produced αSYN, which was eluted with NaCl 0.1 M over 20 column volumes. Fractions containing αSYN were concentrated and further purified through a Superdex 75 SEC column equilibrated with PBS. […] A 4 mg/mL solution of αSYN in 20 mM K3PO4 pH 9.1 was placed in an orbital shaker at 37 °C, 1000 rpm for 5 days to prepare P91s. The assemblies were either sonicated with cycles of 20 s on and 10 s off at 50% amplitude (Q800R3, Qsonica) for a total of 10 min or directly aliquoted in volumes of 10 μL each stored at −80 °C until use. The method for Aβ1-42 fibrils generation was adapted from Bagchi et al. and described in Kuebler et al.[17],[27] […] Aggregation was induced by incubation in an Eppendorf Thermomixer at 37 °C with shaking at 800 rpm for 72 h. The resulting fibrils were sonicated for 3 min in a water bath (Elmasonic S 60 H, Elma Schmidbauer GmbH, Singen, Germany). The final products were aliquoted, frozen on dry ice, and stored at −80 °C until use.
as §1, §2

Setting [1] is: methylated compounds, Table 2, two values in a cell = single determinations, read-out: Ki.
Setting [2] is: Ki, αSYN [^3H]PiB competition, mean Ki ± SEM, n = 3, or single determinations.
[3] abbreviates: nonmethylated compounds, Table 1, two values in a cell = single determinations, a: mean Ki ± SEM of three data points, b: single data point, read-out: Ki.

Turning to `CN(C)c1ccc(/C=C/c2sc3ccccc3[n+]2C)cc1` [19b, 2-(4-(Dimethylamino)styryl)-3-methylbenzo[d]thiazol-3-ium Iodide], at αSYN fibrils (setting [1]), the Ki is more than 400 nM.
Consider `COc1cccc2c1sc(C=Cc1ccc(N3CCCCC3)cc1)[n+]2C` [11b, 7-Methoxy-3-methyl-2-(4-(piperidin-1-yl)styryl)benzo[d]thiazol-3-ium Iodide], for which the Ki at αSYN fibrils (setting [1]) was 234 nM and 177 nM.
On to `Fc1ccc2nc(C=CC=Cc3ccc(N4CCCC4)cc3)sc2c1` [compound 44, 6-Fluoro-2-(4-(4-(pyrrolidin-1-yl)phenyl)buta-1,3-dien-1-yl)benzo[d]thiazole], for which the “competition with [^3H]PiB / binding to Aβ fibrils (in words)” value on Aβ1-42 fibrils was “remained low”. Also, on αSYN fibrils (setting [2]), the Ki was 85 ± 41 nM.
Take `COc1cccc2nc(C=Cc3ccc(N4CCCCC4)cc3)sc12` [11a, 7-Methoxy-2-(4-(piperidin-1-yl)styryl)benzo[d]thiazole]: the Ki on αSYN fibrils (setting [3]) is more than 400 nM.
Consider `Cc1ccc2nc(C=Cc3ccc(N4CCCCC4)cc3)sc2c1` [7a, 6-Methyl-2-(4-(piperidin-1-yl)styryl)benzo[d]thiazole], for which the Ki on αSYN fibrils (setting [3]) is 230 nM and 218 nM.
In the case of `Cc1ccc2sc(C=Cc3ccc(N4CCCCC4)cc3)[n+](C)c2c1` [4b, 3,5-Dimethyl-2-(4-(piperidin-1-yl)styryl)benzo[d]thiazol-3-ium Iodide], at αSYN fibrils (setting [1]), the Ki was 84.6 nM and 59.9 nM.
With `COc1ccc2sc(C=Cc3ccc(N4CCCCC4)cc3)[n+](C)c2c1` [5b, 5-Methoxy-3-methyl-2-(4-(piperidin-1-yl)styryl)benzo[d]thiazol-3-ium Iodide], the inhibitory constant (Ki) at αSYN fibrils (setting [1]) was 27.5 nM and 163 nM.
`Cc1cccc2nc(C=Cc3ccc(N4CCCCC4)cc3)sc12` [10a, 7-Methyl-2-(4-(piperidin-1-yl)styryl)benzo[d]thiazole]: the Ki at αSYN fibrils (setting [3]) is more than 400 nM.
As to `C[n+]1c(/C=C/c2ccc(N3CCOCC3)cc2)sc2ccccc21` [15b, 3-Methyl-2-(4-morpholinostyryl)benzo[d]thiazol-3-ium Iodide], the Ki at αSYN fibrils (setting [1]) is more than 400 nM.
Still for that read-out and setting: for `Cc1cccc2sc(/C=C/c3ccc(N4CCCCC4)cc3)[n+](C)c12` [1b, 3,4-Dimethyl-2-(4-(piperidin-1-yl)styryl)benzo[d]thiazol-3-ium 4-nitrobenzenesulfonate] the value was 36.1 nM and 83.9 nM; for `C[n+]1c(C=Cc2ccc(N3CCSCC3)cc2)sc2ccccc21` [16b, 3-Methyl-2-(4-thiomorpholinostyryl)benzo[d]thiazol-3-ium Iodide], more than 400 nM.
Take `Fc1cccc2sc(C=Cc3ccc(N4CCCCC4)cc3)nc12` [3a, 4-Fluoro-2-(4-(piperidin-1-yl)styryl)benzo[d]thiazole]: the Ki on αSYN fibrils (setting [3]) is 187 nM and 110 nM.
Take `Fc1ccc2sc(C=Cc3ccc(N4CCCCC4)cc3)nc2c1` [6a, 5-Fluoro-2-(4-(piperidin-1-yl)styryl)benzo[d]thiazole]: the Ki on αSYN fibrils (setting [3]) is 169 nM and 124 nM.
On to `Cc1cccc2sc(C=Cc3ccc(N4CCCCC4)cc3)nc12` [1a, 4-Methyl-2-(4-(piperidin-1-yl)styryl)benzo[d]thiazole], for which the Ki at αSYN fibrils (setting [3]) was 71.2 nM and 198 nM.
Consider `C(=Cc1nc2ccccc2s1)c1ccc(N2CCCC2)cc1` [17a, 2-(4-(Pyrrolidin-1-yl)styryl)benzo[d]thiazole], for which, at Aβ1-42 fibrils, the “competition with [^3H]PiB / binding to Aβ fibrils (in words)” value is “None of the tested compounds appreciably competed against [^3H]PiB”. Moreover, the Ki at αSYN fibrils (setting [3]) is 73.4 ± 19 nM.
Consider `COc1cccc2sc(C=Cc3ccc(N4CCCCC4)cc3)nc12` [2a, 4-Methoxy-2-(4-(piperidin-1-yl)styryl)benzo[d]thiazole], for which the Ki at αSYN fibrils (setting [3]) was more than 400 nM.
Turning to `C[n+]1c(C=Cc2ccc(N3CCCCC3)cc2)sc2cc(F)ccc21` [9b, 6-Fluoro-3-methyl-2-(4-(piperidin-1-yl)styryl)benzo[d]thiazol-3-ium Iodide], at αSYN fibrils (setting [1]), the Ki is 335 nM and 43.6 nM.
Take `C[n+]1c(-c2ccc(N3CCCCC3)cc2)sc2ccccc21` [13b, 3-Methyl-2-(4-(piperidin-1-yl)phenyl)benzo[d]thiazol-3-ium]: the Ki at αSYN fibrils (setting [1]) is more than 400 nM.
`C[n+]1c(C=Cc2ccc(N3CCCCC3)cc2)sc2c(F)cccc21` [12b, 7-Fluoro-3-methyl-2-(4-(piperidin-1-yl)styryl)benzo[d]thiazol-3-ium Iodide]: on αSYN fibrils (setting [1]), the inhibition constant (Ki) is more than 400 nM.
In the case of `C(=Cc1nc2ccccc2s1)c1ccc(N2CCCCC2)cc1` [compound 20, 2-(4-(Piperidin-1-yl)styryl)benzo[d]thiazole], the Ki on αSYN fibrils (setting [3]) is 170 nM and 33.5 nM.
As for `C[n+]1c(C=Cc2ccc(N3CCCCC3)cc2)sc2ccc(F)cc21` [6b, 5-Fluoro-3-methyl-2-(4-(piperidin-1-yl)styryl)benzo[d]thiazol-3-ium Iodide], the Ki at αSYN fibrils (setting [1]) was 435 nM and 268 nM.
Turning to `Cc1ccc2c(c1)sc(C=Cc1ccc(N3CCCCC3)cc1)[n+]2C` [7b, 3,6-Dimethyl-2-(4-(piperidin-1-yl)styryl)benzo[d]thiazol-3-ium Iodide], at αSYN fibrils (setting [1]), the Ki was 16.8 nM and 23.8 nM.
With `Cc1ccc2sc(C=Cc3ccc(N4CCCCC4)cc3)nc2c1` [4a, 5-Methyl-2-(4-(piperidin-1-yl)styryl)benzo[d]thiazole], the inhibition constant (Ki) at αSYN fibrils (setting [3]) was 233 nM and 88.1 nM.
For the compound `COc1ccc2nc(C=Cc3ccc(N4CCCCC4)cc3)sc2c1` [8a, 6-Methoxy-2-(4-(piperidin-1-yl)styryl)benzo[d]thiazole], the inhibition constant (Ki) at αSYN fibrils (setting [3]) was 110 nM and 103 nM.
In the case of `Fc1cccc2nc(C=Cc3ccc(N4CCCCC4)cc3)sc12` [12a, 7-Fluoro-2-(4-(piperidin-1-yl)styryl)benzo[d]thiazole], at αSYN fibrils (setting [3]), the Ki was determined as 283 nM.
Still for that read-out and setting: then `CN(C)c1ccc(C=Cc2nc3ccccc3s2)cc1` [19a, 4-(2-(Benzo[d]thiazol-2-yl)vinyl)-N,N-dimethylaniline], with more than 400 nM.
Take `C[n+]1c(/C=C/c2ccc(N3CCCCC3)cc2)sc2cccc(F)c21` [3b, 4-Fluoro-3-methyl-2-(4-(piperidin-1-yl)styryl)benzo[d]thiazol-3-ium 4-nitrobenzenesulfonate]: the Ki at αSYN fibrils (setting [1]) was more than 400 nM.
On the same count and under the same terms, for `COc1cccc2sc(C=Cc3ccc(N4CCCCC4)cc3)[n+](C)c12` [2b, 4-Methoxy-3-methyl-2-(4-(piperidin-1-yl)styryl)benzo[d]thiazol-3-ium Iodide] the value was 70.8 nM and 34.3 nM; for `C[n+]1c(C=Cc2ccc(N3CCCC3)cc2)sc2ccccc21` [17b, 3-Methyl-2-(4-(pyrrolidin-1-yl)styryl)benzo[d]thiazol-3-ium Iodide], 145 nM and 58.6 nM.
On to `COc1ccc2sc(C=Cc3ccc(N4CCCCC4)cc3)nc2c1` [5a, 5-Methoxy-2-(4-(piperidin-1-yl)styryl)benzo[d]thiazole], for which the Ki on αSYN fibrils (setting [3]) was 128 nM and 188 nM.
In the case of `C(=Cc1nc2ccccc2s1)c1ccc(N2CCSCC2)cc1` [16a, 2-(4-Thiomorpholinostyryl)benzo[d]thiazole], the Ki on αSYN fibrils (setting [3]) is 219 nM and 58.6 nM.
For `C[n+]1c(C=CC=Cc2ccc(N3CCCCC3)cc2)sc2ccccc21` [14b, 3-Methyl-2-(4-(4-(piperidin-1-yl)phenyl)buta-1,3-dien-1-yl)benzo[d]thiazol-3-ium Iodide], the Ki at αSYN fibrils (setting [2]) was less than 20 nM; at αSYN fibrils (setting [1]), 23 nM and 16.8 nM.
As to `FC1CCN(c2ccc(C=Cc3nc4ccccc4s3)cc2)CC1` [18a, 2-(4-(4-Fluoropiperidin-1-yl)styryl)benzo[d]thiazole], the Ki at αSYN fibrils (setting [3]) amounted to 99.8 ± 32.6 nM.
Consider `COc1ccc2c(c1)sc(C=Cc1ccc(N3CCCCC3)cc1)[n+]2C` [8b, 6-Methoxy-3-methyl-2-(4-(piperidin-1-yl)styryl)benzo[d]thiazol-3-ium Iodide], for which the inhibitory constant (Ki) at αSYN fibrils (setting [1]) is 19.7 nM and 9.6 nM.
Turning to `Cc1cccc2c1sc(C=Cc1ccc(N3CCCCC3)cc1)[n+]2C` [10b, 3,7-Dimethyl-2-(4-(piperidin-1-yl)styryl)benzo[d]thiazol-3-ium Iodide], the inhibitory constant (Ki) on αSYN fibrils (setting [1]) is 231 nM and 63.9 nM.
For `C[n+]1c(C=Cc2ccc(N3CCC(F)CC3)cc2)sc2ccccc21` [18b, 2-(4-(4-Fluoropiperidin-1-yl)styryl)-3-methylbenzo[d]thiazol-3-ium Iodide], at αSYN fibrils (setting [1]), the Ki was more than 400 nM.
